Experimental data as given in patent US6511673B1, “Microbicidal composition” (Rohm and Haas Company, priority 2000, dated 2003).
Where two headings read alike, the source gives them in different places.

Assays:
Type in all cases: cell-based
Candida albicans = test: High resolution MIC synergy assay in TSB, Test Medium Condition 2 (ten-fold serial dilution)
Description: (§1) Synergism was determined by an industrially accepted method described by Kull, F. C.; Eisman, P. C.; Sylwestrowicz, H. D. and Mayer, R. L., in Applied Microbiology 9:538-541 (1961), using the ratio determined by the formula:
(§2) Qa/QA+Qb/QB=Synergy Index (“SI”)
(§3) When the sum of Qa/QA and Qb/QB is greater than one, antagonism is indicated. […] The lower the SI, the greater the synergy shown by that particular mixture. The minimum inhibitory concentration (MIC) of a microbicide is the lowest concentration tested under a specific set of conditions that prevents the growth of added microorganisms.
(§4) Synergism of combinations of microbicides was determined using standard MIC assays in trypticase soy broth medium (“TSB” medium). In this method, a range of concentrations was tested by preparing two-fold serial dilutions of the compound tested in 96-well microtiter plates. All liquid media transfers were performed with calibrated single or multichannel digital pipettors. Stock solutions of the microbicides were prepared in appropriate solvents and added to the TSB medium. All subsequent dilutions in plates were made using an automated liquid handling system. Final concentrations of microbicides were obtained by making two-fold serial dilutions in two directions in the microtiter plate. […] A cell suspension of either Aspergillus niger (A. niger, ATCC #16404) or Candida albicans (C. albicans, ATCC #10231), adjusted to provide 1×10^5 cells per mL in each well, was added to the microtiter plates.
(§5) In a manner similar to that described above for Test Medium Condition 1, the synergism of combinations of microbicides determined in TSB by conducting high resolution MIC assays in the presence of various concentrations of MI. High resolution MICs were determined by adding varying amounts of microbicide to one column of a microtitre plate and doing subsequent […] dilutions using an automated liquid handling system to obtain a series of endpoints ranging from 2 ppm to 10,000 ppm active ingredient.

Aspergillus niger = test: as above
Description: as §1, §2, §3, §4, §5

[1] = system: Aspergillus niger (ATCC #16404); test: MIC synergy assay in TSB, Test Medium Condition 1 (two-fold serial dilution); settings: ATCC16404, 168 h
Description: as §1, §2, §3
Synergism of combinations of microbicides was determined using standard MIC assays in trypticase soy broth medium (“TSB” medium). In this method, a range of concentrations was tested by preparing two-fold serial dilutions of the compound tested in 96-well microtiter plates. All liquid media transfers were performed with calibrated single or multichannel digital pipettors. Stock solutions of the microbicides were prepared in appropriate solvents and added to the TSB medium. All subsequent dilutions in plates were made using an automated liquid handling system. Final concentrations of microbicides were obtained by making two-fold serial dilutions in two directions in the microtiter plate. […]

[2] = 72 h, read-out: QA, MIC of Compound A acting alone

MIC (Candida albicans; C. albicans, TSB, high resolution MIC, 25° C. 72 hours, read-out: QB, MIC of Compound B acting alone) [µg/mL] | MIC (Aspergillus niger; A. niger, TSB, high resolution MIC, 25° C. 72 hours, read-out: QB, MIC of Compound B acting alone) [µg/mL] | MIC ([1]; A. niger, TSB, two-fold serial dilution, 25° C. one week, read-out: QB, MIC of Compound B acting alone) [µg/mL] | SMILES | MIC (Candida albicans; [2]) [µg/mL] | MIC (Aspergillus niger; [2]) [µg/mL] | MIC ([1]; read-out: QA, MIC of Compound A acting alone) [µg/mL]
 |  |  | Cn1sccc1=O [MI, 2-methyl-3-isothiazolone] | 100 | 150 | 250
300 | 200 | 594 | CCCOC(=O)c1ccc(O)cc1 [PP, propyl para-hydroxybenzoate] |  |  | 
